This assay concerns the target T1, VAV1 (Homo sapiens, UniProt P15498+Q96SW2).
T1 construct: A heterozygous VAV1 C-terminal HiBiT knock-in pool was generated at Monte Rosa Therapeutics from a clonal Jurkat cell; endogenous in cells; host or cells: Jurkat clone stably expressing LgBiT, homozygous GSPT1-G575N; heterozygous VAV1-HiBiT knock-in pool
Nature of the assay: VAV1 degradation activity, VAV1-HiBiT knock-in Jurkat luminescence assay (Example A, Table 1). The assay is classed as cell-based. Particulars: VAV1-HiBiT knock-in Jurkat cells, luminescence read at 6 and 24 hours; for Dmax: Jurkat. Summed up:
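Jurkat cells carrying VAV1-HiBiT knock-in, plated in RPMI/10% FBS with Endurazine live-cell substrate and pre-incubated ~16 h at 37° C. Compound dosed from 10 μM stock; luminescence read 6 and 24 h later. Response normalised to plate negative/positive controls, EC50 from 3-parameter logistic fit (hillslope 1).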
On the technique in general: HiBiT is a short tag that completes a luciferase, so light tracks the accessible tagged protein.

Where [1] appears, read: read-out: VAV1 DC50 (nM), class.

Read-outs that look alike come from different tables or passages of the source. Where only a bound is given, the exact number is not on record here.

Regarding `O=C1CCC(c2cccc(-c3ccc(NC(=O)C4CCOC4)cc3)c2Cl)C(=O)N1` (stereo not shown) [Compound 227, N-[4-[2-chloro-3-(2,6-dioxo-3-piperidyl)phenyl]phenyl]tetrahydrofuran-3-carboxamide], the maximal degradation (Dmax) runs as follows: (read-out: VAV1 Dmax %) 77.4%; (read-out: VAV1 Dmax %, class) 60 to 90%. Moreover, the DC50 is, setting by setting: (read-out: VAV1 DC50) 81.8 nM; under setting [1], at most 100 nM.
Consider `O=C1CCC(c2cccc(-c3ccc(NC(=O)c4ccno4)cc3)c2Cl)C(=O)N1` (stereo not shown) [Compound 228, N-(2′-chloro-3′-(2,6-dioxopiperidin-3-yl)-[1,1′-biphenyl]-4-yl)isoxazole-5-carboxamide], for which the Dmax is 73.5% (read-out: VAV1 Dmax %) and 60 to 90% (read-out: VAV1 Dmax %, class). Also, the DC50 is, setting by setting: (read-out: VAV1 DC50) 190 nM; under setting [1], 100 to 1000 nM.
For `O=C1CCC(c2cccc(-c3ccc(NC(=O)c4ccon4)cc3)c2Cl)C(=O)N1` (stereo not shown) [Compound 229, N-(2′-chloro-3′-(2,6-dioxopiperidin-3-yl)-[1,1′-biphenyl]-4-yl)isoxazole-3-carboxamide], the maximal degradation (Dmax) is 82.7% (read-out: VAV1 Dmax %) and 60 to 90% (read-out: VAV1 Dmax %, class). Besides, the DC50 reads like this: (read-out: VAV1 DC50) 79.3 nM; under setting [1], at most 100 nM.
Taken in the same sequence, the figures for `O=C1CCC(c2cccc(-c3ccc(C(=O)Nc4ccon4)cc3)c2Cl)C(=O)N1` (stereo not shown) [Compound 230, 2′-chloro-3′-(2,6-dioxopiperidin-3-yl)-N-(isoxazol-3-yl)-[1,1′-biphenyl]-4-carboxamide] were 58.5%, below 60%, 2090 nM and above 1000 nM.
`CC(C)(c1ccc(-c2cccc(C3CCC(=O)NC3=O)c2Cl)cc1)n1ccccc1=O` (stereo not shown) [Compound 231, 3-(2-chloro-4′-(2-(2-oxopyridin-1(2H)-yl)propan-2-yl)-[1,1′-biphenyl]-3-yl)piperidine-2,6-dione]: the Dmax (read-out: VAV1 Dmax %) is 90.1% and the maximal degradation (Dmax) (read-out: VAV1 Dmax %, class) is above 90%. Also, the DC50 reads like this: (read-out: VAV1 DC50) 18.4 nM; under setting [1], at most 100 nM.
As for `O=C1CCC(c2cccc(-c3ccc(N4C(=O)CCCC45CC5)cc3)c2Cl)C(=O)N1` (stereo not shown) [Compound 232, 3-(2-chloro-4′-(5-oxo-4-azaspiro[2.5]octan-4-yl)-[1,1′-biphenyl]-3-yl)piperidine-2,6-dione], the Dmax is 98.5% (read-out: VAV1 Dmax %) and above 90% (read-out: VAV1 Dmax %, class). In addition, the 50% degradation concentration (DC50) is 2.8 nM (read-out: VAV1 DC50) and at most 100 nM under setting [1].
Taken in the same sequence, the figures for `O=C1CCC(c2cccc(-c3ccc(CC4COC4)cc3)c2Cl)C(=O)N1` (stereo not shown) [Compound 233, 3-(2-chloro-4′-(oxetan-3-ylmethyl)-[1,1′-biphenyl]-3-yl)piperidine-2,6-dione] were 92%, above 90%, 16.1 nM and at most 100 nM.
Taken in the same sequence, the figures for `O=C1CCC(c2cccc(-c3ccc(-n4ccccc4=O)cc3)c2F)C(=O)N1` (stereo not shown) [Compound 234, 3-(2-fluoro-4′-(2-oxopyridin-1(2H)-yl)-[1,1′-biphenyl]-3-yl)piperidine-2,6-dione] were 75.8%, 60 to 90%, 127 nM and 100 to 1000 nM.
Taken in the same sequence, the figures for `O=C1CCC(c2cccc(-c3ccc(CC(=O)N4CCCC4)cc3)c2Cl)C(=O)N1` (stereo not shown) [Compound 235, 3-(2-chloro-4′-(2-oxo-2-(pyrrolidin-1-yl)ethyl)-[1,1′-biphenyl]-3-yl)piperidine-2,6-dione] were 97.1%, above 90%, 3.87 nM and at most 100 nM.
Consider `O=C1CCC(c2cccc(-c3ccc(-n4ccc(C(F)(F)F)cc4=O)cc3)c2Cl)C(=O)N1` (stereo not shown) [Compound 236, 3-(2-chloro-4′-(2-oxo-4-(trifluoromethyl)pyridin-1(2H)-yl)-[1,1′-biphenyl]-3-yl)piperidine-2,6-dione], for which the maximal degradation (Dmax) was 93.5% (read-out: VAV1 Dmax %) and above 90% (read-out: VAV1 Dmax %, class). The DC50 (read-out: VAV1 DC50) came out at 31.3 nM and the DC50 under setting [1] was at most 100 nM.
Turning to `O=C1CCC(c2cccc(-c3ccc(-n4cc(C(F)(F)F)ccc4=O)cc3)c2Cl)C(=O)N1` (stereo not shown) [Compound 237, 3-(2-chloro-4′-(2-oxo-5-(trifluoromethyl)pyridin-1(2H)-yl)-[1,1′-biphenyl]-3-yl)piperidine-2,6-dione], the maximal degradation (Dmax) (read-out: VAV1 Dmax %) was 92.7% and the Dmax (read-out: VAV1 Dmax %, class) is above 90%. For the same compound, the DC50 was 35.8 nM (read-out: VAV1 DC50) and at most 100 nM under setting [1].
Turning to `O=C1CCC(c2cccc(-c3ccc(-n4c(C(F)F)cccc4=O)cc3)c2Cl)C(=O)N1` (stereo not shown) [Compound 238, 3-(2-chloro-4′-(6-(difluoromethyl)-2-oxopyridin-1(2H)-yl)-[1,1′-biphenyl]-3-yl)piperidine-2,6-dione], the maximal degradation (Dmax) was 98.7% (read-out: VAV1 Dmax %) and above 90% (read-out: VAV1 Dmax %, class). Moreover, the DC50 is, setting by setting: (read-out: VAV1 DC50) 2.24 nM; under setting [1], at most 100 nM.
Consider `O=C1CCC(c2cccc(-c3ccc(Cn4ccccc4=O)cc3)c2)C(=O)N1` (stereo not shown) [Compound 239, 3-(4′-((2-oxopyridin-1(2H)-yl)methyl)-[1,1′-biphenyl]-3-yl)piperidine-2,6-dione], for which the maximal degradation (Dmax) is 63.4% (read-out: VAV1 Dmax %) and 60 to 90% (read-out: VAV1 Dmax %, class). In addition, the half-maximal degradation concentration (DC50) (read-out: VAV1 DC50) was determined as 341 nM and the half-maximal degradation concentration (DC50) under setting [1] fell in the range of 100 to 1000 nM.
In the case of `Cc1c(-c2ccc(-n3ccccc3=O)cc2)cccc1C1CCC(=O)NC1=O` (stereo not shown) [Compound 240, 3-[2-methyl-3-[4-(2-oxo-1-pyridyl)phenyl]phenyl]piperidine-2,6-dione], the greatest degradation seen (Dmax) is, setting by setting: (read-out: VAV1 Dmax %) 94.4%; (read-out: VAV1 Dmax %, class) above 90%. Moreover, the DC50 was 77.1 nM (read-out: VAV1 DC50) and at most 100 nM under setting [1].
For `O=C1CCC(c2cccc(-c3ccc(C4(n5ccccc5=O)CC4)cc3)c2Cl)C(=O)N1` (stereo not shown) [Compound 241, 3-[2-chloro-3-[4-[1-(2-oxo-1-pyridyl)cyclopropyl]phenyl]phenyl]piperidine-2,6-dione], the Dmax (read-out: VAV1 Dmax %) was 77% and the Dmax (read-out: VAV1 Dmax %, class) lay within 60 to 90%. For the same compound, the 50% degradation concentration (DC50) (read-out: VAV1 DC50) was 920 nM and the DC50 under setting [1] is 100 to 1000 nM.
In the case of `O=C1CCC(c2cccc(-c3ccc(-n4c(F)cccc4=O)cc3)c2Cl)C(=O)N1` (stereo not shown) [Compound 242, 3-(2-chloro-4′-(6-fluoro-2-oxopyridin-1(2H)-yl)-[1,1′-biphenyl]-3-yl)piperidine-2,6-dione], the Dmax reads like this: (read-out: VAV1 Dmax %) 91.5%; (read-out: VAV1 Dmax %, class) above 90%. Moreover, the 50% degradation concentration (DC50) (read-out: VAV1 DC50) was determined as 68.4 nM and the DC50 under setting [1] was at most 100 nM.
In the case of `Cc1c(-c2ccc(Cn3ccccc3=O)cc2)cccc1C1CCC(=O)NC1=O` (stereo not shown) [Compound 243, 3-[2-methyl-3-[4-[(2-oxo-1-pyridyl)methyl]phenyl]phenyl]piperidine-2,6-dione], the greatest degradation seen (Dmax) is 56.8% (read-out: VAV1 Dmax %) and below 60% (read-out: VAV1 Dmax %, class). The DC50 is 4220 nM (read-out: VAV1 DC50) and above 1000 nM under setting [1].
Taken in the same sequence, the figures for `O=C1CCC(c2cccc(-c3ccc(N4C(=O)CCCC4C(F)(F)F)cc3)c2Cl)C(=O)N1` (stereo not shown) [Compound 244, 3-(2-chloro-4′-(2-oxo-6-(trifluoromethyl)piperidin-1-yl)-[1,1′-biphenyl]-3-yl)piperidine-2,6-dione] were 96.5%, above 90%, 8.36 nM and at most 100 nM.
The corresponding values for `O=C1CCC(c2cccc(-c3ccc(-n4ccc(F)cc4=O)cc3)c2Cl)C(=O)N1` (stereo not shown) [Compound 245, 3-[2-chloro-3-[4-(4-fluoro-2-oxo-1-pyridyl)phenyl]phenyl]piperidine-2,6-dione] are 95.2%, above 90%, 17.5 nM and at most 100 nM.
Taken in the same sequence, the figures for `O=C1CCC(c2cccc(-c3ccc(-n4cc(F)ccc4=O)cc3)c2Cl)C(=O)N1` (stereo not shown) [Compound 246, 3-(2-chloro-4′-(5-fluoro-2-oxopyridin-1(2H)-yl)-[1,1′-biphenyl]-3-yl)piperidine-2,6-dione] were 94.3%, above 90%, 17.5 nM and at most 100 nM.
On to `CN1CCCN(c2ccc(-c3cccc(C4CCC(=O)NC4=O)c3Cl)cc2)C1=O` (stereo not shown) [Compound 247], for which the Dmax is, setting by setting: (read-out: VAV1 Dmax %) 95.4%; (read-out: VAV1 Dmax %, class) above 90%. In addition, the DC50 is, setting by setting: (read-out: VAV1 DC50) 5.38 nM; under setting [1], at most 100 nM.
Turning to `O=C1CCC(c2cccc(-c3ccc(NC(=O)N4CCCC4)cc3)c2Cl)C(=O)N1` (stereo not shown) [Compound 248, N-(2′-chloro-3′-(2,6-dioxopiperidin-3-yl)-[1,1′-biphenyl]-4-yl)pyrrolidine-1-carboxamide], the Dmax (read-out: VAV1 Dmax %) came to 84.4% and the maximal degradation (Dmax) (read-out: VAV1 Dmax %, class) lay within 60 to 90%. In addition, the DC50 reads like this: (read-out: VAV1 DC50) 26.3 nM; under setting [1], at most 100 nM.
The corresponding values for `Cn1ccc(CCc2ccc(-c3cccc(C4CCC(=O)NC4=O)c3Cl)cn2)n1` (stereo not shown) [Compound 249, 3-(2-chloro-3-(6-(2-(1-methyl-1H-pyrazol-3-yl)ethyl)pyridin-3-yl)phenyl)piperidine-2,6-dione] are 48.9%, below 60%, 7400 nM and above 1000 nM.
Consider `Cn1ccc(COc2ccc(-c3cccc(C4CCC(=O)NC4=O)c3Cl)cn2)n1` (stereo not shown) [Compound 251, 3-(2-chloro-3-(6-((1-methyl-1H-pyrazol-3-yl)methoxy)pyridin-3-yl)phenyl)piperidine-2,6-dione], for which the Dmax (read-out: VAV1 Dmax %) came out at 73.8% and the Dmax (read-out: VAV1 Dmax %, class) was in the range of 60 to 90%. The 50% degradation concentration (DC50) runs as follows: (read-out: VAV1 DC50) 354 nM; under setting [1], 100 to 1000 nM.
Turning to `O=C1CCC(c2cccc(-c3ccc(CN4CCc5ocnc5C4=O)cc3)c2Cl)C(=O)N1` (stereo not shown) [Compound 252], the Dmax (read-out: VAV1 Dmax %) turned out to be 82.8% and the Dmax (read-out: VAV1 Dmax %, class) was 60 to 90%. Also, the DC50 reads like this: (read-out: VAV1 DC50) 54.8 nM; under setting [1], at most 100 nM.

What is called Dmax is the largest share of the target that was removed. Broadly, the DC50 is the concentration giving 50% degradation.

The record behind these values is US12257247B2 (Monte Rosa Therapeutics AG, priority 2023, dated 2025).
